This is an account of results in patent US9283242B2, “Uses of dihydro bases” (priority 2013, dated 2016).

Data set [1] in a line: Variable temperature 1H NMR, tautomerism in DMF-d7. It counts as physicochemical. The conditions noted are these: DMF-d7, 20 to −60° C. How it is done: At 20° C., exchangeable protons on the base moiety are observed at 7.58 ppm and 4.14 ppm (FIG. 10). At −60° C., exchangeable protons on the base moiety are observed at 8.70 ppm, 8.08 ppm, and 4.68 ppm (FIG. 11). Protons with a chemical shift of 8.70, 8.08, and 7.58 ppm likely correspond to enolic, amido, or imino protons, while protons with a chemical shift of 4.68 and 4.14 ppm likely correspond to amino protons. The expected chemical shifts for enolic, amido, and imino protons are relatively close, and thus these species cannot be assigned at this stage. […] Only the existence of multiple tautomeric species would explain the presence of three exchangeable protons resonances. […] Based on their chemical structures, the keto-amino tautomer will pair with guanine and the keto-imino/enol-imino tautomers can pair with adenine.
All NMR experiments were performed on Varian 500 MHz NMR spectrometers. The deuterated solvent DMF-d7 was from Cambridge Isotope Laboratories, Andover, Mass., USA. 5-Aza-5,6-dihydro-2′-deoxycytidine (KP1212) nucleoside was from Berry & Associates Inc., Dexter, Mich., USA. The NMR sample was prepared by dissolving 10 mg of KP1212 nucleoside in 1.0 ml DMF-d7 (final concentration ˜44 mM). ^1H NMR spectra were reported in parts per million (ppm) and were referenced to the signals for DMF-d7 (8.03 ppm). ^13C NMR spectra were referenced to the signals for DMF-d7 (163.15 ppm).
FIG. 14A depicts the structures of all five possible tautomers (1 to 5) of KP1212, among which the three active protons on the nucleobase shift among the 02, N3, N4 and N5 positions. […] Before assigning the three active protons on the nucleobase moiety, all non-exchangeable protons in KP1212 and the two hydroxyl protons on the 3′ and 5′ positions were identified by carrying out 1D (^1H and ^13C) and 2D (COSY, HSQC, and HMBC) NMR experiments. The NMR signals of the three active protons in the base portion of KP1212 were studied at different temperatures. […] When the temperature was decreased to −50° C., the three broad peaks resolved into six distinct proton resonances (FIG. 14B, denoted as peaks i-vi), which could be assigned to imino (designated as e and n in FIGS. 14A to 14C), amido (designated as g and m), enolic (designated as c and d) or amino (designated as a, b, f, h, i, j, k, l, and o) protons.
At −50° C. six distinct proton resonances (FIG. 14B, i to vi) were observed, attributable to protons bound either to nitrogen or to oxygen atom (for only the base portion of the KP1212 molecule). Integration of the six broad peaks permitted estimation of the relative ratios of the five tautomeric species that exist in solution (FIG. 14A).
The NMR data also allowed the determination of the relative ratios of the tautomeric species present in the DMF solution at −50° C. (FIGS. 14B and 14C). Several peaks in the NMR spectrum partially overlapped (e.g., iv and v), so the raw data were reconstructed using a least squares fit algorithm (FIG. 16). The reconstructed peaks from the simulation were integrated, yielding an estimate of the relative amounts of each of the proton resonances in the spectrum. […] 2) Based on the peak assignments from part 1), a system of linear equations was set up using the relative amounts of tautomers as unknown variables (FIG. 14D). Each NMR peak provided a linear equation whereby the peak area should be equal to the sum of all tautomers (as relative amounts) containing protons that contribute to that peak. The solutions of these equations yielded the relative ratios of the tautomeric species present in DMF at −50° C. (FIG. 14D).

Data set [2] concerns HK82 (AlkB−) E. coli cells. It counts as cell-based.
Another data set concerns HK82-SOS. In words: REAP mutagenesis assay, HK82-SOS cells. The conditions noted are these: (b) HK82-SOS. The data set is classed as cell-based, E. coli. An excerpt:
(§1) All E. coli strains used in this work contain the F′ episome, which enables infection by M13 phage. GW5100 strain was used for large scale preparation of M13 phage DNA, SCS 110 (JM110, end Al) was used for amplification of progeny phage post-electroporation, and NR9050 was the strain of choice for double agar plating with X-GAL for blue-clear detection of plaques. The E. coli strains used to replicate lesion-containing phage were HK81 (as AB1157, but nalA) and HK82 (as AB1157, but nalA alkB22; AlkB-deficient).
(§2) Lesion-containing genomes were mixed with the competitor genome (80:20 molar ratio) and electroporated in triplicate into 100 μl competent cells using a 2 mm-gap cuvette and a BTX electroporator set to 2.5 kV and 125 a Typical pulse lengths were 4.9 msec. The cells were immediately transferred to 10 ml LB and an aliquot was immediately plated using the agar overlay method to verify that a minimum of 10^5 independent initial electroporation events occurred in 10 ml of culture. Incubation for 6 h at 37° C. with aeration generated the progeny phage, which were then reamplified in SCS 110 cells (10 μl overnight culture and 100 μl of the 6 h supernatant in 10 ml LB) to dilute out the residual genomic DNA used for electroporation. Single-stranded M13 progeny phage DNA was isolated from 1.4 ml of supernatant using a Q1Aprep Spin M13 Kit with final DNA suspension in 100 μl elution buffer. CRAB forward and reverse primers were used to amplify the region of interest from 15 μl per Q1Aprep elution sample in a total volume of 25 μl containing 50 pmol of each primer, 1×Pfu Turbo buffer, 1.25 U Pfu Turbo DNA polymerase and […] of each dNTP. The PCR program used 30 cycles of 67° C. (1 min) annealing and 72° C. (1 min) extensions. After purification using QIAQUICK PCR purification columns, 4 μl of the PCR product were treated with BbsI (1.5 U) and SAP (0.3 U) in a total volume of 6 μl by incubating at 37° C. for 4 h. After phosphatase inactivation, (80° C. for 5 min), the 5′ ends were then radiolabeled using [γ-^32P]-ATP (1.66 pmol, 10 μCi/μl, 6000 Ci/mmol), cold ATP (16 pmol) and 5 U of OPTIKINASE at 37° C. for 30 min. Following the kinase inactivation at 65° C. for 20 min, the labeled product was then trimmed by HaeIII (10 U in a final volume of 10 μl) at 37° C. for 2 h, and diluted 1:1 in formamide loading dye. PAGE separation on a 20% denaturing gel, run for about 3.5 h at 550 V, until the xylene cyanol dye migrated 10.5 cm, yielded two bands for each sample: an 18-mer originating from the lesion-containing genome and a 21-mer originating from the competitor genome. The gels were visualized on a phosphorimager (Typhoon 7000, GE Healthcare Life Sciences); the band intensities were quantified using IMAGEJ software (National Institutes of Health). Lesion bypass was calculated as the percentage ratio of the intensity of the 18-mer band (lesion signal) to the intensity of the 21-mer band (competitor signal).
(§3) The REAP assay methodology is identical to the CRAB assay except for the PCR primers, which amplified only the progeny DNA originating from the lesion-carrying genomes. Following electrophoresis, the 18-mer bands were excised from the gel, crushed and extracted with 200 μl water. After desalting with SEPHADEX G-50 Fine resin spin columns, the samples were lyophilized to dryness, resuspended in 5 μl containing 1 μg P1 Nuclease in 30 mM sodium acetate (pH 5.3) and 10 mM zinc chloride, and incubated at 50° C. for 1 h. One μl of each sample was then spotted onto PEI-TLC plates and separated using 200 ml of a saturated solution of (NH4)2HPO4 adjusted to pH 5.8. After 24 h of development, the TLC plates were air-dried and quantified using phosphorimagery. […]

For data set [3], the system named is HK81 (AlkB+) E. coli cells. In words: REAP mutagenesis assay, HK81 cells. The data set is classed as cell-based.
Text: as §1, §2, §3

In data set [4] the test system is HK82 (AlkB−) E. coli cells. The data set is classed as cell-based. The source holds these as a separate data set.
The next data set concerns HK82SOS. The experiment in a line: CRAB lesion bypass assay, HK82SOS cells. It counts as cell-based, E. coli. The conditions noted are these: percentage relative to unmodified control genome.
Text: as §1
as §2, with “After purification using QIAQUICK PCR purification columns, 4 μl of the PCR product were treated with BbsI (1.5 U) and SAP (0.3 U) in a total volume of 6 μl by incubating at 37° C. for 4 h. After phosphatase inactivation, (80° C. for 5 min), the 5′ ends were then radiolabeled using [γ-^32P]-ATP (1.66 pmol, 10 μCi/μl, 6000 Ci/mmol), cold ATP (16 pmol) and 5 U of OPTIKINASE at 37° C. for 30 min. Following the kinase inactivation at 65° C. for 20 min, the labeled product was then trimmed by HaeIII (10 U in a final volume of 10 μl) at 37° C. for 2 h, and diluted 1:1 in formamide loading dye. PAGE separation on a 20% denaturing gel, run for about 3.5 h at 550 V, until the xylene cyanol dye migrated 10.5 cm, yielded two bands for each sample: an 18-mer originating from the lesion-containing genome and a 21-mer originating from the competitor genome.” left out, “signal). […]” for “signal).”

The test system of data set [5] is HK81 (AlkB+) E. coli cells. It counts as cell-based. As to the method:
(A) A 16mer oligonucleotide containing KP1212 (SEQ ID NO: 1) (or controls) at a specific site was chemically synthesized and ligated into the genome of an M13 bacteriophage. (B) The KP1212-containing M13 genomes were replicated within E. coli cells. Progeny were analyzed to characterize the amount and the type of nucleic acid base placed opposite the lesion during replication. The relative reduction in lesion vs. non-lesion competitor progeny formation was used as an estimate of the extent to which KP1212 and m3C inhibited DNA replication. (C) The KP1212-containing M13 genomes were used as templates for in vitro polymerase extension assays, carried out at 72° C., using the high-fidelity DNA polymerase PfuTurbo. (D) Bypass efficiency (CRAB assay) of KP1212, m3C, C in HK81 (AlkB^+) and HK82 (AlkB^−) E. coli cells. m3C and undamaged C were used as controls. Genomes were made and normalized to one another before being combined with a competitor genome. Each mixture was transformed into the corresponding cell strain in triplicate, and bypass efficiency was calculated by using the undamaged C genome as 100% bypass, with error bars representing one standard deviation. (E) Mutagenesis (REAP assay) of KP1212, m3C, and C in HK82 (AlkB^−) E. coli cells. m3C, undamaged C, and an approximately equimolar mixture of genomes carrying unmodified G/A/T/C bases at the site of inquiry (denoted as GATC) were used as controls. Genomes containing the lesions of interest were transfected into E. coli in triplicate.
as §1

“Also recorded” adds a separate entry of the source.

For `Nc1ncn([C@H]2C[C@H](O)[C@@H](CO)O2)c(=O)n1` [5-Aza-dC, 5-aza-2′-deoxycytidine], the “tautomerism by Variable Temperature NMR” value in data set [1] is recorded as “does not show multiple tautomerism; also recorded: single tautomerism”.

`NC1=NC(=O)N(C2CC(O)C(CO)O2)CC1` (centres unmarked) [DHdC]: the “tautomerism by Variable Temperature NMR” value in data set [1] is reported as “shows multiple tautomerism; also recorded: multiple tautomers”.

Turning to `Cn1c(N)ccnc1=O` [m3C, 3-methylcytosine], the “replication block / toxicity to replication” value in data set [2] (E. coli (FIG. 18D), for m3C cells that lack AlkB) is given as “very toxic to replication”. Moreover, the “Polymerase bypass efficiency, Avg.” value came out at 14% in data set [2] (HK82, percentage relative to unmodified control genome, triplicate); 45% with HK82SOS; 113% in data set [5] (HK81, percentage relative to unmodified control genome). Also, the “Mutagenicity, Average % A” value in the data set on HK82-SOS is recorded as 33.6%; in data set [3] ((c) HK81), 0.0%; in data set [4] ((a) HK82) it was 30.6%. Besides, the “Mutagenicity, Average % C” value is on record as 5.7% in the data set with HK82-SOS, 100.0% in data set [3] and 13.2% in data set [4] ((a) HK82). Besides, the “Mutagenicity, Average % G” value in the data set with HK82-SOS is 3.2%; in data set [3] ((c) HK81), 0.0%; in data set [4] ((a) HK82), 1.3%. The “Mutagenicity, Average % T” value in the data set with HK82-SOS was found to be 57.5%; in data set [3] ((c) HK81), 0.0%; in data set [4] ((a) HK82), 54.9%. Moreover, the “base pairing / mutagenicity (in words)” value in data set [4] (FIGS. 18C, 18E, m3C in repair deficient cells) is “mispair with both A and T”. The toxicity to replication entry in data set [5] (cells that expressed the repair enzyme AlkB) is “toxicity was abolished”.
